Results reported in article PMC12389534, “Unlocking Therapeutic Potential of Novel Thieno-Oxazepine Hybrids as Multi-Target Inhibitors of AChE/BChE and Evaluation Against Alzheimer’s Disease: In Vivo, In Vitro, Histopathological, and Docking Studies” (Pharmaceuticals, 2025).

Key:
AChE = biological target: T1, AChE (Homo sapiens, UniProt P22303); test: biochemical; settings: colorimetric kit, 412 nm
T1 construct: purchased BioVision K197-100
Experimental: All newly created compounds were subjected to an AChE enzyme inhibitory screening. This was performed with the Colorimetric AChE Inhibitor Screening Kit (BioVision Catalog # K197-100). The 96-well assay kit provides a rapid, simple, and reliable way to screen for AChE inhibitors in large quantities. […] A completely transparent 96-well plate with a flat bottom was loaded with 10 µL of test inhibitors that were diluted (20×). […] A measure of 10 μL of diluted AChE was applied to each well that contained compounds, inhibitor control, and solvent control. […] Measures of 25 μL of AChE assay buffer, 5 μL of probe mix, and 10 μL of diluted AChE substrate were mixed to create the reaction mix. The reaction mix was mixed with the compound, enzyme control, and inhibitor control. […] The IC50 was calculated using nonlinear regression analysis using the response–concentration (log) curve.

[1] = tested on: AlCl3-induced AD rat model; test: Morris water maze (MWM) test in AlCl3-induced AD rats; type: in vivo; settings: for Learning (s): escape latency; for Learning (s) / Memory (s): mean ± SE, n = 6; for Memory (s): time spent in target quadrant
Experimental: All procedures were conducted conforming to the applicable National Institutes of Health standards and regulations for the Care and Use of Laboratory Animals. In this experiment, adult male Dawley rats in excellent condition weighing between 300 and 320 g were used. The animals were acquired from the Nile Company for Pharmaceuticals and Chemical Industries (Cairo, Egypt). They were placed in a controlled laboratory setting with unrestricted access to water, a temperature range of 24 to 26 °C, and 12 h a light–dark cycle. Three rats per cage were housed in polycarbonate cages that were individually packed with paper and encased with stainless steel wire.
Spatial learning and memory were inspected using the MWM test. Tap water was poured into a 150 cm diameter by 60 cm high circular water tank until it reached a depth of 30 cm (25 ± 2 °C). To make the water […], non-toxic white dye was applied. The east, west, north, and south quadrants of the pool were essentially separated into four equal sections. At a specific spot in the middle of one quadrant, an escape platform with a diameter of 10 cm was submerged 2 cm below the water’s surface. The platform stood in the exact same quadrant throughout the testing. The rats’ swimming route was recorded by a video camera situated above the pool. From a designated spot in each quadrant, each rat was submerged in the water with its back turned to the pool wall, and it was then left to swim to the platform. The rats received training sessions every day for three days in a row, with four trials conducted in each session. Before the next trial began, the animals were kept a maximum of 60 s to explore the hidden platform. After that, they were permitted to relax on it for 20 s. The rat was positioned gently on the platform and allowed 20 s to rest if it took longer than 60 s to locate it. The time taken to find the platform, or the escape latency, was documented. In order to do a probing test on the fourth day, the platform was detached away, and the rats were given 60 s to swim liberally. The time spent in the assigned quadrant was counted.

Amyloid-β = test: Brain amyloid-β level (ELISA); type: in vivo, rat; parameters: reduction of β-amyloid levels: concentration or dose not given beside the values; settings: AlCl3-induced AD rats; for Amyloid-β (ng/g Tissue): brain, mean ± SE, n = 6
Experimental: (§1) The brain tissues of the rats were removed and rigorously washed in isotonic saline 24 h after they were euthanized following the last behavioral test. For histological investigation, four brains per group were preserved for the whole night in 10% neutral buffered formalin. The remaining six brains were split into two sections each. In order to create a 10% homogenate (w/v), the first component was instantaneously homogenized using an ice-cold solution that included 300 mM sucrose and 50 mM Tris-HCl (pH 7.4). The homogenate was centrifuged at 1800× g for 10 min at 4 °C for biochemical tests, and the supernatant was thereafter kept at −20 °C. The second portion was set aside for use in RT-PCR analysis at −80 °C [94].
(§2) See Supplementary Information.

TAC = test: Brain TAC (colorimetric); type: in vivo, rat; settings: AlCl3-induced AD rats; for TAC (µmol/g Tissue): brain tissue, mean ± SE, n = 6
Experimental: as §1
The SOD enzyme activity was estimated using the Marklund et al. method, which is founded on the enzyme’s capacity to decrease the nitro blue tetrazolium dye at a wavelength of 540 nm. To evaluate the TAC, a colorimetric approach was employed to estimate the amount of hydrogen peroxide that remains after 3,5-dichloro-2-hydroxybenzene sulphonate is converted to a colored product at 660 nm.

TNF-α = test: Brain TNF-α level (ELISA); type: in vivo, rat; settings: AlCl3-induced AD rats; for TNF-α (pg/g Tissue): mean ± SE, n = 6
Experimental: as §1, with “[94]. […]” for “[94].”

MDA = test: Brain MDA content (thiobarbituric acid method); type: in vivo, rat; parameters: reduction in MDA brain content: concentration or dose not given beside the values; settings: AlCl3-induced AD rats; for MDA (nmol/g Tissue): brain tissue, mean ± SE, n = 6
BACE1 = test: Brain BACE1 level (ELISA); type: in vivo, rat; parameters: reduction of BACE1 levels: concentration or dose not given beside the values; settings: AlCl3-induced AD rats; for BACE1 (ng/mL): mean ± SE, n = 6
Experimental: as §1, with “[94]. […]” for “[94].”

NLRP3 = NLRP3 mRNA expression (RT-qPCR); type: in vivo, rat; parameters: reduction of NLRP3 mRNA expression: concentration or dose not given beside the values; settings: AlCl3-induced AD rats; for NLRP3: mRNA expression level, mean ± SE, n = 6
Experimental: as §1, §2

BAX = BAX gene expression (RT-qPCR); type: in vivo, rat; settings: AlCl3-induced AD rats; for BAX: gene expression, mean ± SE, n = 6
Experimental: as §1, §2

DA = test: Brain DA level (fluorometric); type: in vivo, rat; settings: AlCl3-induced AD rats; for DA (ng/g Tissue): brain tissue, mean ± SE, n = 6
Experimental: as §1
Brain monoamine levels were promptly assessed following the rats’ euthanasia to prevent changes in the substance’s concentration. Dopamine (DA), norepinephrine (NE), and serotonin (5-HT) fluorometric tests were conducted on brain tissue homogenate using the Ciarlone method. […] The concentrations were articulated as nanograms per gram of fresh tissue using the fluorescence of reference solutions [95].

BChE = biological target: T2, BChE (Homo sapiens, UniProt P06276); test: biochemical; settings: for IC50: fluorescence kit, triplicate; for Selectivity Index BChE/AChE: ratio of IC50 BChE to IC50 AChE, <1 = preferential BChE inhibition
T2 construct: purchased Invitrogen EIABCHEF
T2 sequence (P06276 29-602): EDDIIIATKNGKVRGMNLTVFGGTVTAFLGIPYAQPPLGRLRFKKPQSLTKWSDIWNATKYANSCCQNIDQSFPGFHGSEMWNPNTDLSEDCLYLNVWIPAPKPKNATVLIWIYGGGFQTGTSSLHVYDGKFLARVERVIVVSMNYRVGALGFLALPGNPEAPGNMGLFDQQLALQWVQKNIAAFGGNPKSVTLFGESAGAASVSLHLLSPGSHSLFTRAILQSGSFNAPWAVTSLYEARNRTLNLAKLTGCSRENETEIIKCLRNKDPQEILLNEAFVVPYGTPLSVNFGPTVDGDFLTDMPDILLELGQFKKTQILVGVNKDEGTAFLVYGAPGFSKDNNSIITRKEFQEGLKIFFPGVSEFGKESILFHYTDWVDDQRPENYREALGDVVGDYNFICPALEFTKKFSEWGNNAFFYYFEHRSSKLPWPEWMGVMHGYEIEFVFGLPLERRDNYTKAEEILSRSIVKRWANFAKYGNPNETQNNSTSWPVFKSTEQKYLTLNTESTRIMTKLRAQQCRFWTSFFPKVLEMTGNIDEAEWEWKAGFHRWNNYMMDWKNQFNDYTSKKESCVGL
Experimental: Using an Invitrogen BChE test kit (Catalog #EIABCHEF), the assay was performed in compliance with the supplier’s instructions. The study was conducted using black 96-well plates. […] Each well was then filled with 50 μL of the reaction mixture, which consisted of fluorescence detection reagent and butyrylthiocholine iodide in assay buffer. The plate was then left to incubate for 20 min at room temperature. Finally, excitation at 390 nm was used to observe emission at 510 nm using a microplate reader. Background fluorescence was further eliminated for each data point.

T1 sequence (P22303 32-614): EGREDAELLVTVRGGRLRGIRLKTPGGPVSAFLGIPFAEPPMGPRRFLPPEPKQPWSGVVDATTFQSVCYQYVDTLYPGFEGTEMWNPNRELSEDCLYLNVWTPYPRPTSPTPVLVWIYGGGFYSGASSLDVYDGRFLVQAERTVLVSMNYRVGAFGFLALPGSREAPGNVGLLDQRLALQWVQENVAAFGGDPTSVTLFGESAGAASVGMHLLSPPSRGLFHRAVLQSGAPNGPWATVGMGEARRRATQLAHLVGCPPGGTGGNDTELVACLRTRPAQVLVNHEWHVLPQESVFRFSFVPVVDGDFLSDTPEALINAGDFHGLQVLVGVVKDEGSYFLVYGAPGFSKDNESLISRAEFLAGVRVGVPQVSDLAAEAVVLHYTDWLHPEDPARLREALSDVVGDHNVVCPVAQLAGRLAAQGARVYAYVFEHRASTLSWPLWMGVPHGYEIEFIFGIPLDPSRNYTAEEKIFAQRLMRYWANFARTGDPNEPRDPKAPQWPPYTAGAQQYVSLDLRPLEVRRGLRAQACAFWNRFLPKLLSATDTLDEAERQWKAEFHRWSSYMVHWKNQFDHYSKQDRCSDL

Compound	IC50 (AChE)	increase in quadrant residence time [1]	Learning (s) [1]	Memory (s) [1]	reduction of β-amyloid levels (Amyloid-β)	Amyloid-β (ng/g Tissue) (Amyloid-β)	improvement of TAC levels (TAC)	TAC (µmol/g Tissue) (TAC)	decline in TNF-α levels (TNF-α)	TNF-α (pg/g Tissue) (TNF-α)	reduction in MDA brain content (MDA)	MDA (nmol/g Tissue) (MDA)	BACE1 (ng/mL) (BACE1)	reduction of NLRP3 mRNA expression (NLRP3)	NLRP3 (NLRP3)	BAX (BAX)	elevation of DA levels (DA)	DA (ng/g Tissue) (DA)	IC50 (BChE)	Selectivity Index BChE/AChE (BChE)	also measured
COc1ccc(N2CC(=O)Oc3sc4c(c3C2=O)CCCCC4)cc1 [Compound 16, 4-(4-Methoxyphenyl)-3,4,7,8,9,10-hexahydro-6H-cyclohepta[4,5]thieno[3,2-f][1,4]oxa-zepine-2,5-dione]	0.76 ± 0.03 µM	3.6 times	26.83 ± 1.2 ^abc s	36.00 ± 1.27 ^abc s	55.4%	12.44 ± 0.14 ^abc ng/g Tissue	4.4 times	42.42 ± 0.84 ^abc µmol/g Tissue	51.6%	85.17 ± 0.46 ^abc pg/g Tissue	72.8%	31.63 ± 0.05 ^abc nmol/g Tissue	17.44 ± 0.23 ^abc ng/mL	59.5%	4.32 ± 0.10 ^abc	6.14 ± 0.090 ^abc	4.4 fold	52.96 ± 1.52 ^abc ng/g Tissue	5.23 ± 0.18 µM	6.89	suppression of BAX gene expression (BAX): 36.5%
O=C1CN(c2ccccc2)C(=O)c2c(sc3c2CCCCC3)O1 [Compound 11, 4-Phenyl-3,4,7,8,9,10-hexahydro-6H-cyclohepta[4,5]thieno[3,2-f][1,4]oxazepine-2,5-dione]	2.67 ± 0.09 µM	3.5 times	25.17 ± 1.25 ^abc s	35.17 ± 0.95 ^abc s	48.9%	14.25 ± 0.16 ^abc ng/g Tissue	4 times	38.23 ± 0.50 ^abc µmol/g Tissue	43.6%	99.23 ± 0.42 ^abc pg/g Tissue	68.4%	36.75 ± 0.09 ^abc nmol/g Tissue	18.83 ± 0.13 ^abc ng/mL	49.5%	5.39 ± 0.11 ^abc	6.84 ± 0.090 ^abc	4.6 fold	54.63 ± 6.11 ^abc ng/g Tissue	13.8 ± 0.48 µM	5.18	reduction of BACE1 levels (BACE1): 36.5%; suppression of BAX gene expression (BAX): 29.3%
O=C1CN(c2ccc(Cl)cc2)C(=O)c2c(sc3c2CCCCC3)O1 [Compound 12, 4-(4-Chlorophenyl)-3,4,7,8,9,10-hexahydro-6H-cyclohepta[4,5]thieno[3,2-f][1,4]oxazepine-2,5-dione]	10.9 ± 0.38 µM	3.7 times	23.5 ± 1.23 ^abc s	37.17 ± 1.52 ^abc s	62.3%	10.51 ± 0.1 ^abc ng/g Tissue	approximately 3 times	29.33 ± 0.57 ^abc µmol/g Tissue	62.5%	65.98 ± 0.91 ^abc pg/g Tissue	38%	72.02 ± 0.05 ^abc nmol/g Tissue	13.68 ± 0.2 ^abc ng/mL	69.9%	3.21 ± 0.12 ^abc	4.85 ± 0.110 ^abc	3.2 fold	38.37 ± 2.86 ^abc ng/g Tissue	65.9 ± 2.27 µM	6.04	reduction of BACE1 levels (BACE1): 53.9%
